Experimental data as given in PMC7206119, “RIP1 inhibition blocks inflammatory diseases but not tumor growth or metastases” (Cell Death and Differentiation, 2019).

Key:
Experiment in all cases: biochemical
Design in all cases: Thermo Fisher SelectScreen kinase panel: Z'-LYTE and Adapta activity, LanthaScreen binding
ACVR1B = ACVR1B (Homo sapiens, UniProt P36896)
Protocol: (§1) 5 88 GNE684 was tested in Thermo Fisher Scientific SelectScreen assay (Madison, WI) 89 against 221 representative kinases at a concentration of 10 µM, which is 476-fold greater than the Ki app 90 for GNE684 against human RIP1 in the RIP1 enzyme 91 assay. The kinase assays were carried out using Z'-LYTE and Adapta activity and 92 LanthaScreen binding assays (Thermo Fisher Scientific, Madison WI) following 93 protocols developed and performed by Thermo Fisher Scientific 94 (https://www.thermofisher.com/us/en/home/products-and-services/services/custom-95 services/screening-and-profiling-services/selectscreen-profiling-service/selectscreen-96 kinase-profiling-service.html). 97 GNE684 was also tested against 468 kinases in the KINOMEscan scanMAX kinase 98 binding assay panel at a concentration of 10 µM following protocols developed and 99 performed by DiscoverX (http://www.discoverx.com/kinase_profiling).

ASK1 = molecular target: T1, ASK1 (Homo sapiens, UniProt Q99683)
T1 construct: gene MAP3K5
Protocol: as §1

CDK5/p25 = molecular target: T2, CDK5/p25 (Homo sapiens, UniProt Q00535)
T2 construct: p25
Protocol: as §1

CDK9/cyclinT1 = CDK9/cyclinT1 (Homo sapiens, UniProt P50750)
Protocol: as §1

CHK2 = molecular target: T3, CHK2 (Homo sapiens, UniProt O96017)
T3 construct: gene CHEK2
Protocol: as §1

CK1_epsilon1 = molecular target: T4, CK1_epsilon1 (Homo sapiens, UniProt P49674)
T4 construct: gene CSNK1E
Protocol: as §1

CSK = CSK (Homo sapiens, UniProt P41240)
Protocol: as §1

CamKIV = molecular target: T5, CamKIV (Homo sapiens, UniProt Q16566)
T5 construct: gene CAMK4
Protocol: as §1

DDR1 = DDR1 (Homo sapiens, UniProt Q08345)
Protocol: as §1

IRAK4 = IRAK4 (Homo sapiens, UniProt Q9NWZ3)
Protocol: as §1

IRR = molecular target: T6, IRR (Homo sapiens, UniProt P14616)
T6 construct: gene INSRR
Protocol: as §1

ITK = ITK (Homo sapiens, UniProt Q08881)
Protocol: as §1

KHS1 = molecular target: T7, KHS1 (Homo sapiens, UniProt Q9Y4K4)
T7 construct: gene MAP4K5
Protocol: as §1

MARK1 = MARK1 (Homo sapiens, UniProt Q9P0L2)
Protocol: as §1

MARK3 = MARK3 (Homo sapiens, UniProt P27448)
Protocol: as §1

Mink1 = Mink1 (Homo sapiens, UniProt Q8N4C8)
Protocol: as §1

PASK = PASK (Homo sapiens, UniProt Q96RG2)
Protocol: as §1

PKC_theta = molecular target: T8, PKC_theta (Homo sapiens, UniProt Q04759)
T8 construct: gene PRKCQ
Protocol: as §1

PKD1 = molecular target: T9, PKD1 (Homo sapiens, UniProt Q15139)
T9 construct: gene PRKD1
Protocol: as §1

Ron = molecular target: T10, Ron (Homo sapiens, UniProt Q04912)
T10 construct: gene MST1R
Protocol: as §1

Ros = molecular target: T11, Ros (Homo sapiens, UniProt P08922)
T11 construct: gene ROS1
Protocol: as §1

TEC = TEC (Homo sapiens, UniProt P42680)
Protocol: as §1

YSK1 = molecular target: T12, YSK1 (Homo sapiens, UniProt O00506)
T12 construct: gene STK25
Protocol: as §1

T7 sequence (Q9Y4K4 whole entry): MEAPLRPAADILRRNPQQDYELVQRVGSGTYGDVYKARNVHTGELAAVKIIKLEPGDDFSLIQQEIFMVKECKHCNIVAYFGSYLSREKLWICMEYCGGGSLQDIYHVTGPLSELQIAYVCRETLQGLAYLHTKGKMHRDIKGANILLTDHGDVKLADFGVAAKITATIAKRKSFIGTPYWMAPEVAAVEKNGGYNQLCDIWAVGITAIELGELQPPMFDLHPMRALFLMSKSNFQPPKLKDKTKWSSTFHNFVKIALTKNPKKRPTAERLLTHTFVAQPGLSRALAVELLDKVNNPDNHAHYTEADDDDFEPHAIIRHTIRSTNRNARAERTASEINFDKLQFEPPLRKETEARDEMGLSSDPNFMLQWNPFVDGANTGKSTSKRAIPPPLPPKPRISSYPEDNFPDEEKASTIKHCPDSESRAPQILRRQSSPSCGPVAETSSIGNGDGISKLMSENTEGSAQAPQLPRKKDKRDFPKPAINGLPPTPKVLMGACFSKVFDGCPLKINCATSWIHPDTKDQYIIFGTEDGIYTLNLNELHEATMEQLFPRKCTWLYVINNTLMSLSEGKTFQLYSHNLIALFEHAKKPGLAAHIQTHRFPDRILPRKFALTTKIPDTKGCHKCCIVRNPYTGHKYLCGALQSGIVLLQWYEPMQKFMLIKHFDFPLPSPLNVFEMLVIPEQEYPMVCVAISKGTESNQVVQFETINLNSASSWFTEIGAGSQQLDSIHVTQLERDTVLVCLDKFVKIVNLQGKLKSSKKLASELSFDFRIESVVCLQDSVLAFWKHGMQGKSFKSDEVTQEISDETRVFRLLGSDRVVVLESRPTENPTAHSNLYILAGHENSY
Chain of CSK (P41240 whole entry): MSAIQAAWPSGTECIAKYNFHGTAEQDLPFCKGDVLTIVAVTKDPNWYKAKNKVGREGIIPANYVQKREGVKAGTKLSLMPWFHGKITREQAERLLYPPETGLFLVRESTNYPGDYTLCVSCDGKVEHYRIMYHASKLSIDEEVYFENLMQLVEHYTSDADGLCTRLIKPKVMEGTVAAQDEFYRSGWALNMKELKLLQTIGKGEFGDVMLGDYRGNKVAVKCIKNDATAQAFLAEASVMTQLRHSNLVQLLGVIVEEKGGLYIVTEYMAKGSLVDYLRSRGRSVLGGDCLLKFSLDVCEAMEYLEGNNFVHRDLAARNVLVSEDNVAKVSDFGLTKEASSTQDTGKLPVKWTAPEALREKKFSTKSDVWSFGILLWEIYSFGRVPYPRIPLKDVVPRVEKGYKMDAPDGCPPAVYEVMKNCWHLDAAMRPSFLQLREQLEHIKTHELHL
T1 sequence (Q99683 whole entry): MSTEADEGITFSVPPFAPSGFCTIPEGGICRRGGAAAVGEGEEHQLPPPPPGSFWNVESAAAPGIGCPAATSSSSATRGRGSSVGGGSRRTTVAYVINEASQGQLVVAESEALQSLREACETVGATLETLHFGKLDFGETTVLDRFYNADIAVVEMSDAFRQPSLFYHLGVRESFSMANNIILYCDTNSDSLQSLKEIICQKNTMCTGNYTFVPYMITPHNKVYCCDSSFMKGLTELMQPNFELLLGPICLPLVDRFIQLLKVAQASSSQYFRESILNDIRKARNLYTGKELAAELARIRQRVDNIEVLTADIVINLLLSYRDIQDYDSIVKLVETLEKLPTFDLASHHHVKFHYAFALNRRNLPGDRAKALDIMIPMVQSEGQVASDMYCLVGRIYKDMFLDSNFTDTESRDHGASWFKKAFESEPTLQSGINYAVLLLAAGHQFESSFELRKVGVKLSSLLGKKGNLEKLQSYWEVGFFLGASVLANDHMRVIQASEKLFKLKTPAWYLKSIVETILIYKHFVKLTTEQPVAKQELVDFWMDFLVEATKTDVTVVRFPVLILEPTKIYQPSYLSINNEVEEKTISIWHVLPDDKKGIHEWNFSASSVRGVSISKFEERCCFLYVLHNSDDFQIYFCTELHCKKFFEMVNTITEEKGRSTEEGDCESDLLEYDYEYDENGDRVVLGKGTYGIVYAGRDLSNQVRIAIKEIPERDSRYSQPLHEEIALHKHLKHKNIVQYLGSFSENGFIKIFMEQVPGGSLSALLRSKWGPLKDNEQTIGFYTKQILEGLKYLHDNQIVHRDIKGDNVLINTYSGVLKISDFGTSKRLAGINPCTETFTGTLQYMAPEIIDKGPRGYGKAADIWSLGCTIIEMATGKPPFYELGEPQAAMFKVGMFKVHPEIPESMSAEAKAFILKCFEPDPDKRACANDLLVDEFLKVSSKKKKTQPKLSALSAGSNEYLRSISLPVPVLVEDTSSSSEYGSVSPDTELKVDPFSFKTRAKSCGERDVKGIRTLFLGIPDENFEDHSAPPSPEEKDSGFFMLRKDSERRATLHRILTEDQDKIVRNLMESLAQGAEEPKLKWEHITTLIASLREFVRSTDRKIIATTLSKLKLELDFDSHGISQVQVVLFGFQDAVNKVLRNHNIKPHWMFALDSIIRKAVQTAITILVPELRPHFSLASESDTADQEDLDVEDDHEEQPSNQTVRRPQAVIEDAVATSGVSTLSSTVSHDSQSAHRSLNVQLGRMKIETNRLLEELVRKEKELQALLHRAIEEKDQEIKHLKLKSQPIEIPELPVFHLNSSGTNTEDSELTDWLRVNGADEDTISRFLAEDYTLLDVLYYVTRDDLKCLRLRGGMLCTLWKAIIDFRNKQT
T9 sequence (Q15139 whole entry): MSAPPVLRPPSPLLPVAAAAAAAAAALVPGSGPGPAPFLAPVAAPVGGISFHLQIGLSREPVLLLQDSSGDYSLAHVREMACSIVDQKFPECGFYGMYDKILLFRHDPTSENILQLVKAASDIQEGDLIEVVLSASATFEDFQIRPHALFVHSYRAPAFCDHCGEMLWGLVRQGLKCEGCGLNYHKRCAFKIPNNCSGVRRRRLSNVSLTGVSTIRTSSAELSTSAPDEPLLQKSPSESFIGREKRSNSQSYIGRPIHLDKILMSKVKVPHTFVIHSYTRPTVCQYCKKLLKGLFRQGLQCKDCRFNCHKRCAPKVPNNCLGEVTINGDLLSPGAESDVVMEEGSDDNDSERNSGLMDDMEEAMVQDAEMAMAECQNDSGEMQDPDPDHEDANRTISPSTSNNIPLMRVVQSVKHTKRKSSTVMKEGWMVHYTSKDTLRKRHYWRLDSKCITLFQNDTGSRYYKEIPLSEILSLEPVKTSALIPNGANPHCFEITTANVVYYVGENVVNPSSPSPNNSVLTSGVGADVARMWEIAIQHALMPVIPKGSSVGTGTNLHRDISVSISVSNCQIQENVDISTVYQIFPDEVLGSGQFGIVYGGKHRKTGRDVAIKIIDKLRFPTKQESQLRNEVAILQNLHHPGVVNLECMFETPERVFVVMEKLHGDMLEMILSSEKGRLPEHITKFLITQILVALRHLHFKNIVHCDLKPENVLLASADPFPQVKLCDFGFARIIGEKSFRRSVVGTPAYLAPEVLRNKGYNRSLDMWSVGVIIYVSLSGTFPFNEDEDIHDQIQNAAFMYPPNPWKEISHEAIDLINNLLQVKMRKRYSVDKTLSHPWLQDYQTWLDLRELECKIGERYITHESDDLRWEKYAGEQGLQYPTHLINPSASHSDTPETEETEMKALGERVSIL
T2 sequence (Q00535 whole entry): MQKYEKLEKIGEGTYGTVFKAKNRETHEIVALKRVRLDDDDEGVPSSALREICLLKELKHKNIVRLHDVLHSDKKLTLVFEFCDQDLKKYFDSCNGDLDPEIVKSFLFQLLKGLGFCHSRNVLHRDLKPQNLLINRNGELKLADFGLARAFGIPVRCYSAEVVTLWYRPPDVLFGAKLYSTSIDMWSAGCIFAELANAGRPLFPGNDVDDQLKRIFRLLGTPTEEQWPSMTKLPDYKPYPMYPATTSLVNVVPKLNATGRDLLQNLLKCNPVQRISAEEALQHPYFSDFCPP
T2 sequence (Q15078 whole entry partner): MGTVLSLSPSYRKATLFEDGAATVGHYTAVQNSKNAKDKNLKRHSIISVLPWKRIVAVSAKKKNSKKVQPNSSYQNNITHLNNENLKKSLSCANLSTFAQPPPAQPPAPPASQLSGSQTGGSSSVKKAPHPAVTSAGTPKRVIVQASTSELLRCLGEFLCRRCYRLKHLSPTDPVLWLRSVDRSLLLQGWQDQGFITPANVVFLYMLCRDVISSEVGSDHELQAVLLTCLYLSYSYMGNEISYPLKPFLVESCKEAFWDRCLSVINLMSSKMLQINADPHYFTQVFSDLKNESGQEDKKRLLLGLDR
T8 sequence (Q04759 whole entry): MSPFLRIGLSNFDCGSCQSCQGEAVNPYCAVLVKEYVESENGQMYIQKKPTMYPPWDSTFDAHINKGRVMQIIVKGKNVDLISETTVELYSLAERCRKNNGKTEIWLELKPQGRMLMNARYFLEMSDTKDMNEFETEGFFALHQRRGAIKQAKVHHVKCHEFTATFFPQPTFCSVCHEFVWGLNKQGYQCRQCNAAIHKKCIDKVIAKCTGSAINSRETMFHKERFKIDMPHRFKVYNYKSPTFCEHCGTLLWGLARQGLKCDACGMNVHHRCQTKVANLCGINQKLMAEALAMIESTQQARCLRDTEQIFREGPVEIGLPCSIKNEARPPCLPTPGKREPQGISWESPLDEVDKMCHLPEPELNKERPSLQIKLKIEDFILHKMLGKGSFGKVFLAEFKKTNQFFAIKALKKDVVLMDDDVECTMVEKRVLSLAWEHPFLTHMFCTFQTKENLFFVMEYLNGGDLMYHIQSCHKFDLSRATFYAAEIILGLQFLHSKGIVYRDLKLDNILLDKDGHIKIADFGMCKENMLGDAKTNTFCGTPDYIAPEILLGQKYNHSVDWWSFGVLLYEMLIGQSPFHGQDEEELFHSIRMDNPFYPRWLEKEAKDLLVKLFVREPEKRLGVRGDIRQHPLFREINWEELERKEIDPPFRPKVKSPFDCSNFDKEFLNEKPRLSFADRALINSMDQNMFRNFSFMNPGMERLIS

Question: With COc1cc2c(cn1)N(C)C(=O)[C@@H](NC(=O)c1nc3n(n1)[C@H](c1ccccc1)CC3)CC2 [GNE684, (S)-N-((S)-7-methoxy-1-methyl-2-oxo-2,3,4,5-tetrahydro-1H-pyrido[3,4-b]azepin-3-yl)-5-phenyl-6,7-dihydro-5H-pyrrolo[1,2-b][1,2,4]triazole-2-carboxamide] as the molecule, how does the inhibition at 10 µM (ACVR1B) read?
Answer: -2%

Question: And the inhibition at 10 µM (ASK1)?
Answer: 4%

Question: What about the inhibition at 10 µM (CDK5/p25) of the same molecule?
Answer: 4.5%

Question: And the inhibition at 10 µM (CDK9/cyclinT1)?
Answer: 9%

Question: And the inhibition at 10 µM (CHK2)?
Answer: 5%

Question: And the inhibition at 10 µM (CK1_epsilon1)?
Answer: 5%

Question: And the inhibition at 10 µM (CSK)?
Answer: -1.5%

Question: What about the inhibition at 10 µM (CamKIV) of the same molecule?
Answer: -1%

Question: And the inhibition at 10 µM (DDR1)?
Answer: 4.5%

Question: And the inhibition at 10 µM (IRAK4)?
Answer: 5%

Question: And the inhibition at 10 µM (IRR)?
Answer: 12%

Question: And the inhibition at 10 µM (ITK)?
Answer: 5%

Question: What about the inhibition at 10 µM (KHS1) of the same molecule?
Answer: 12%

Question: What about the inhibition at 10 µM (MARK1) of the same molecule?
Answer: 6.5%

Question: What about the inhibition at 10 µM (MARK3) of the same molecule?
Answer: -2.5%

Question: And the inhibition at 10 µM (Mink1)?
Answer: 18.5%

Question: What about the inhibition at 10 µM (PASK) of the same molecule?
Answer: 4.5%

Question: What about the inhibition at 10 µM (PKC_theta) of the same molecule?
Answer: -5%

Question: What about the inhibition at 10 µM (PKD1) of the same molecule?
Answer: 3%

Question: What about the inhibition at 10 µM (Ron) of the same molecule?
Answer: 4.5%

Question: And the inhibition at 10 µM (Ros)?
Answer: 3%

Question: And the inhibition at 10 µM (TEC)?
Answer: -1%

Question: And the inhibition at 10 µM (YSK1)?
Answer: 3.5%
